This note sets out measurements from patent US10017507B2, “Diaza-benzofluoranthrene compounds” (HARBIN PHARMACEUTICAL GROUP CO., LTD. GENERAL …, priority 2015, dated 2018).

The experiment has as its target T1, PDE1A (Homo sapiens, UniProt P54750).
T1 construct: purchased SignalChem
Put plainly: In vitro detection of phosphodiesterase (PDE): PDE1A enzyme activity by fluorescence polarization immunoassay. Conditions: human-derived enzyme, cAMP or cGMP substrate; read-out: IC50s for PDE1. The class given is biochemical. Put shortly:
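Human PDE1A (enzyme solution 3 pM) was preincubated 10 min at RT with compound in 10 mM Tris-HCl pH 7.5, 5 mM MgCl2, 0.01% Brij 35, 1 mM DTT, 1% DMSO, with Ca2+-calmodulin cofactor. Reaction ran 1 h at RT on […] cAMP or cGMP, then 90 min with antibody/tracer. FP at Ex/Em 620/688 was converted to AMP/GMP via standard curve to give IC50.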
(In fluorescence polarisation assays a small probe gives low polarisation when free and higher when bound to something large.)

A value given as a limit tells only on which side of the number the result lay.

On to `CC[C@@]12C=C(c3nnco3)n3c4c(c5ccccc53)CCN(CCC1)[C@H]42` [Example 15, 2-((4^1S,13aS)-13a-ethyl-2,3,4^1,5,6,13a-hexahydro-1H-indolo[3,2,1-de]pyrido[3,2,1-ij][1,5]naphthyridin-12-yl)-1,3,4-oxadiazole], for which the IC50 is above 100 µM.
As to `CC[C@@]12C=C(c3ccc(C)nn3)n3c4c(c5ccccc53)CCN(CCC1)[C@H]42` [Example 9, (4^1S,13aS)-13a-ethyl-12-(6-methylpyridazin-3-yl)-2,3,4^1,5,6,13a-hexahydro-1H-indolo[3,2,1-de]pyrido[3,2,1-ij][1,5]naphthyridine], the IC50 lay in the range of 1 to 20 µM.
To `CCCC(O)(CCC)C1=C[C@]2(CC)CCCN3CCc4c(n1c1ccccc41)[C@@H]32` [Example 49, 4-((4^1S,13aS)-13a-ethyl-2,3,4^1,5,6,13a-hexahydro-1H-indolo[3,2,1-de]pyrido[3,2,1-ij][1,5]naphthyridin-12-yl) heptan-4-ol] belongs above 100 µM; to `CC[C@@]12C=C(c3nc(C)c(C)o3)n3c4c(c5c(S(=O)(=O)NC)cccc53)CCN(CCC1)[C@H]42` [Example 73, (4^1S,13aS)-12-(4,5-dimethyloxazol-2-yl)-13a-ethyl-N-methyl-2,3,4^1,5,6,13a-hexahydro-1H-indolo[3,2,1-de]pyrido[3,2,1-ij][1,5]naphthyridin-7-sulfonamide], 1 to 20 µM; to `CC[C@@]12C=C(c3noc(C(F)(F)F)n3)n3c4c(c5ccccc53)CCN(CCC1)[C@H]42` [Example 21, 3-((4^1S,13aS)-13a-ethyl-2,3,4^1,5,6,13a-hexahydro-1H-indolo[3,2,1-de]pyrido[3,2,1-ij][1,5]naphthyridin-12-yl)-5-trifluoromethyl-1,2,4-oxadiazole], above 100 µM.
Then `CC[C@@]12C=C(c3nc(C)c(C)o3)n3c4c(c5ccccc53)CCN(CCC1)[C@H]42` [Example 52, 2-((4^1S,13aS)-13a-ethyl-2,3,4^1,5,6,13a-hexahydro-1H-indolo[3,2,1-de]pyrido[3,2,1-ij][1,5]naphthyridin-12-yl)-4,5-dimethyloxazole], with at most 1 µM.
Regarding `CC[C@@]12C=C(c3nc(C(C)C)no3)n3c4c(c5ccccc53)CCN(CCC1)[C@H]42` [Example 34, 5-((4S,13aS)-13a-ethyl-2,3,4^1,5,6,13a-hexahydro-1H-indolo[3,2,1-de]pyrido[3,2,1-ij][1,5]naphthyridin-12-yl)-3-isopropyl-1,2,4-oxadiazole], the IC50 fell in the range of 1 to 20 µM.
To `CC[C@@]12C=C(c3noc(C4CCOCC4)n3)n3c4c(c5ccccc53)CCN(CCC1)[C@H]42` [Example 23, 3-((4^1S,13aS)-13a-ethyl-2,3,4^1,5,6,13a-hexahydro-1H-indolo[3,2,1-de]pyrido[3,2,1-ij][1,5]naphthyridin-12-yl)-5-(tetrahydro-2H-pyran-4-yl)-1,2,4-oxadiazole] belongs 1 to 20 µM.
Turning to `CC[C@@]12C=C(c3ncccc3C)n3c4c(c5ccccc53)CCN(CCC1)[C@H]42` [Example 13, (4^1S,13aS)-13a-ethyl-12-(3-methylpyridin-2-yl)-2,3,4^1,5,6,13a-hexahydro-1H-indolo[3,2,1-de]pyrido[3,2,1-ij][1,5]naphthyridine], the IC50 is 20 to 100 µM.
Consider `CC[C@@]12C=C(c3nc(C)c(C)o3)n3c4c(c5cc(S(=O)(=O)N(C)C)ccc53)CCN(CCC1)[C@H]42` [Example 71, (4^1S,13aS)-12-(4,5-dimethyloxazol-2-yl)-13a-ethyl-N,N-dimethyl-2,3,4^1,5,6,13a-hexahydro-1H-indolo[3,2,1-de]pyrido[3,2,1-ij][1,5]naphthyridin-8-sulfonamide], for which the IC50 was 1 to 20 µM.
`CC[C@@]12C=C(c3cn4ccccc4n3)n3c4c(c5ccccc53)CCN(CCC1)[C@H]42` [Example 42, (4^1S,13aS)-13a-ethyl-12-(imidazo[1,2-a]pyridin-2-yl)-2,3,4^1,5,6,13a-hexahydro-1H-indolo[3,2,1-de]pyrido[3,2,1-ij][1,5]naphthyridine]: the IC50 lay within 1 to 20 µM.
Then `CC[C@@]12C=C(c3nc(C)c(N4CCOCC4)o3)n3c4c(c5ccccc53)CCN(CCC1)[C@H]42` [Example 67, 4-(2-((4^1S,13aS)-13a-ethyl-2,3,4^1,5,6,13a-hexahydro-1H-indolo[3,2,1-de]pyrido[3,2,1-ij][1,5]naphthyridin-12-yl)-4-methyloxazol-5-yl)morpholine], with at most 1 µM; and `CC[C@@]12C=C(c3nc(C)c(C(=O)OC)o3)n3c4c(c5ccccc53)CCN(CCC1)[C@H]42` [Example 59, Methyl-2-((4^1S,13aS)-13a-ethyl-2,3,4^1,5,6,13a-hexahydro-1H-indolo[3,2,1-de]pyrido[3,2,1-ij][1,5]naphthyridin-12-yl)-4-methyloxazole-5-carbonate], with at most 1 µM.
To `CC[C@@]12C=C(c3noc(=O)[nH]3)n3c4c(c5ccccc53)CCN(CCC1)[C@H]42` [Example 18, 3-((4^1S,13aS)-13a-ethyl-2,3,4^1,5,6,13a-hexahydro-1H-indolo[3,2,1-de]pyrido[3,2,1-ij][1,5]naphthyridin-12-yl)-1,2,4-oxadiazol-5 (4H)-one] belongs above 100 µM; to `CC[C@@]12C=C(c3nc(C)no3)n3c4c(c5c(S(=O)(=O)N(C)C)cccc53)CCN(CCC1)[C@H]42` [Example 83, (4^1S,13aS)-13a-ethyl-N,N-dimethyl-12-(3-methyl-1,2,4-oxadiazol-5-yl)-2,3,4^1,5,6,13a-hexahydro-1H-indolo[3,2,1-de]pyrido[3,2,1-ij][1,5]naphthyridin-7-sulfonamide], 20 to 100 µM.
In the case of `CC[C@@]12C=C(c3nc(C)ns3)n3c4c(c5ccccc53)CCN(CCC1)[C@H]42` [Example 39, 5-((4^1S,13aS)-13a-ethyl-2,3,4^1,5,6,13a-hexahydro-1H-indolo[3,2,1-de]pyrido[3,2,1-ij][1,5]naphthyridin-12-yl)-3-methyl-1,2,4-thiadiazole], the IC50 was 1 to 20 µM.
To `CC[C@@]12C=C(c3nc(C)c(C)o3)n3c4c(c5ccc(S(=O)(=O)NCCCOC)cc53)CCN(CCC1)[C@H]42` [Example 70, (4^1S,13aS)-12-(4,5-dimethyloxazol-2-yl)-13a-ethyl-N-(3-methoxylpropyl)-2,3,4^1,5,6,13a-hexahydro-1H-indolo[3,2,1-de]pyrido[3,2,1-ij][1,5]naphthyridin-9-sulfonamide] belongs at most 1 µM.
Consider `CC[C@@]12C=C(c3nc(C)c(C)o3)n3c4c(c5c(S(=O)(=O)N(C)C)cccc53)CCN(CCC1)[C@H]42` [Example 74, (4^1S,13aS)-12-(4,5-dimethyloxazol-2-yl)-13a-ethyl-N,N-dimethyl-2,3,4^1,5,6,13a-hexahydro-1H-indolo[3,2,1-de]pyrido[3,2,1-ij][1,5]naphthyridin-7-sulfonamide], for which the IC50 was in the range of 1 to 20 µM.
To `CCOC(=O)/C=C/C1=C[C@]2(CC)CCCN3CCc4c(n1c1ccccc41)[C@@H]32` [Example 6, (E)-ethyl-3-((4^1S,13aS)-13a-ethyl-2,3,4^1,5,6,13a-hexahydro-1H-indolo[3,2,1-de]pyrido[3,2,1-ij][1,5]naphthyridin-12-yl)acrylate] belongs 1 to 20 µM; to `CC[C@@]12C=C(c3nc(C)c(C(C)C)o3)n3c4c(c5ccccc53)CCN(CCC1)[C@H]42` [Example 54, 2-((4^1S,13aS)-13a-ethyl-2,3,4^1,5,6,13a-hexahydro-1H-indolo[3,2,1-de]pyrido[3,2,1-ij][1,5]naphthyridin-12-yl)-5-isopropyl-4-methyloxazole], 1 to 20 µM.
Regarding `CC[C@@]12C=C(c3noc(-c4ccc(F)cc4)n3)n3c4c(c5ccccc53)CCN(CCC1)[C@H]42` [Example 27, 3-((4^1S,13aS)-13a-ethyl-2,3,4^1,5,6,13a-hexahydro-1H-indolo[3,2,1-de]pyrido[3,2,1-ij][1,5]naphthyridin-12-yl)-5-(4-fluorophenyl)-1,2,4-oxadiazole], the IC50 is above 100 µM.
To `CC[C@@]12C=C(c3nc(C(C)(C)O)no3)n3c4c(c5ccccc53)CCN(CCC1)[C@H]42` [Example 37, 2-(5-((4^1S,13aS)-13a-ethyl-2,3,4^1,5,6,13a-hexahydro-1H-indolo[3,2,1-de]pyrido[3,2,1-ij][1,5]naphthyridin-12-yl)-1,2,4-oxadiazol-3-yl)-propan-2-ol] belongs 1 to 20 µM; to `CC[C@@]12C=C(c3nc(C(F)F)no3)n3c4c(c5ccccc53)CCN(CCC1)[C@H]42` [Example 36, 3-Difluoromethyl-5-((4^1S,13aS)-13a-ethyl-2,3,4^1,5,6,13a-hexahydro-1H-indolo[3,2,1-de]pyrido[3,2,1-ij][1,5]naphthyridin-12-yl)-1,2,4-oxadiazole], 20 to 100 µM.
